Test results taken from paper PMC9856672, “SGC-CAMKK2-1: A Chemical Probe for CAMKK2” (Cells, 2023).

Tests used:
[1] = target: T1, p38-delta (Homo sapiens, UniProt O15264); test: KINOMEscan 1 μM, p38-delta; assay type: binding; conditions: 1000 nM; Entrez MAPK13; read-out: Percent Control
T1 construct: purchased Eurofins DiscoverX KINOMEscan
Text: (§1) Supplement cells-12-00287-s001.zip/File S2. KinomeScan data for the CAMKK2 probe and negative control.xlsx, sheet "SGC-CAMKK2-1" | column: Percent Control

[2] = target: T2, MAP3K3 (Homo sapiens, UniProt Q99759); test: KINOMEscan 1 μM, MAP3K3; assay type: binding; conditions: 1000 nM; Entrez MAP3K3; read-out: Percent Control
T2 construct: purchased Eurofins DiscoverX KINOMEscan
Text: as §1

[3] = target: T3, EGFR (Homo sapiens, UniProt P00533); test: KINOMEscan 1 μM, EGFR; assay type: binding; conditions: 1000 nM; Entrez EGFR; read-out: Percent Control
T3 construct: purchased Eurofins DiscoverX KINOMEscan
Text: as §1

[4] = target: T4, WNK3 (Homo sapiens, UniProt Q9BYP7); test: KINOMEscan 1 μM, WNK3; assay type: binding; conditions: 1000 nM; Entrez WNK3; read-out: Percent Control
T4 construct: purchased Eurofins DiscoverX KINOMEscan
Text: as §1

[5] = target: T5, BRK (Homo sapiens, UniProt Q13882); test: KINOMEscan 1 μM, BRK; assay type: binding; conditions: 1000 nM; Entrez PTK6; read-out: Percent Control
T5 construct: purchased Eurofins DiscoverX KINOMEscan
Text: as §1

[6] = target: T6, CSNK1D (Homo sapiens, UniProt P48730); test: KINOMEscan 1 μM, CSNK1D; assay type: binding; conditions: 1000 nM; Entrez CSNK1D; read-out: Percent Control
T6 construct: purchased Eurofins DiscoverX KINOMEscan
Text: as §1

[7] = target: T7, JNK1 (Homo sapiens, UniProt P45983); test: KINOMEscan 1 μM, JNK1; assay type: binding; conditions: 1000 nM; Entrez MAPK8; read-out: Percent Control
T7 construct: purchased Eurofins DiscoverX KINOMEscan
Text: as §1

[8] = target: T8, LYN (Homo sapiens, UniProt P07948); test: KINOMEscan 1 μM, LYN; assay type: binding; conditions: 1000 nM; Entrez LYN; read-out: Percent Control
T8 construct: purchased Eurofins DiscoverX KINOMEscan
Text: as §1

[9] = target: T9, LZK (Homo sapiens, UniProt O43283); test: KINOMEscan 1 μM, LZK; assay type: binding; conditions: 1000 nM; Entrez MAP3K13; read-out: Percent Control
T9 construct: purchased Eurofins DiscoverX KINOMEscan
Text: as §1

[10] = target: T10, MKK7 (Homo sapiens, UniProt O14733); test: KINOMEscan 1 μM, MKK7; assay type: binding; conditions: 1000 nM; Entrez MAP2K7; read-out: Percent Control
T10 construct: purchased Eurofins DiscoverX KINOMEscan
Text: as §1

[11] = target: T11, NDR1 (Homo sapiens, UniProt Q15208); test: KINOMEscan 1 μM, NDR1; assay type: binding; conditions: 1000 nM; Entrez STK38; read-out: Percent Control
T11 construct: purchased Eurofins DiscoverX KINOMEscan
Text: as §1

[12] = target: T12, p38-alpha (Homo sapiens, UniProt Q16539); test: KINOMEscan 1 μM, p38-alpha; assay type: binding; conditions: 1000 nM; Entrez MAPK14; read-out: Percent Control
T12 construct: purchased Eurofins DiscoverX KINOMEscan
Text: as §1

[13] = target: T13, PIK3CA(E545A) (Homo sapiens, UniProt P42336, E545A); test: DiscoverX KINOMEscan binding assay at 1 μM, PIK3CA(E545A); conditions: Compound Concentration 1000 nM, read-out: Percent Control
T13 construct: purchased Eurofins DiscoverX KINOMEscan
Text: as §1

[14] = target: T14, ROCK1 (Homo sapiens, UniProt Q13464); test: DiscoverX KINOMEscan binding assay at 1 μM, ROCK1; conditions: Compound Concentration 1000 nM, read-out: Percent Control
T14 construct: purchased Eurofins DiscoverX KINOMEscan
Text: as §1

[15] = target: T15, RPS6KA4(Kin.Dom.1-N-terminal) (Homo sapiens, UniProt O75676); test: DiscoverX KINOMEscan binding assay at 1 μM, RPS6KA4(Kin.Dom.1-N-terminal); conditions: Compound Concentration 1000 nM, read-out: Percent Control
T15 construct: RPS6KA4(Kin.Dom.1-N-terminal); purchased Eurofins DiscoverX KINOMEscan
Text: as §1

[16] = target: T16, RPS6KA5(Kin.Dom.2-C-terminal) (Homo sapiens, UniProt O75582); test: DiscoverX KINOMEscan binding assay at 1 μM, RPS6KA5(Kin.Dom.2-C-terminal); conditions: Compound Concentration 1000 nM, read-out: Percent Control
T16 construct: RPS6KA5(Kin.Dom.2-C-terminal); purchased Eurofins DiscoverX KINOMEscan
Text: as §1

[17] = target: T17, TYRO3 (Homo sapiens, UniProt Q06418); test: DiscoverX KINOMEscan binding assay at 1 μM, TYRO3; conditions: Compound Concentration 1000 nM, read-out: Percent Control
T17 construct: purchased Eurofins DiscoverX KINOMEscan
Text: as §1

[18] = target: T18, ZAK (Homo sapiens, UniProt Q9NYL2); test: DiscoverX KINOMEscan binding assay at 1 μM, ZAK; conditions: Compound Concentration 1000 nM, read-out: Percent Control
T18 construct: purchased Eurofins DiscoverX KINOMEscan
Text: as §1

[19] = target: T2, MAP3K3; test: KINOMEscan at 1 μM, MAP3K3; assay type: binding; conditions: 1000 nM, read-out: Percent Control
Text: (§2) Supplement cells-12-00287-s001.zip/File S2. KinomeScan data for the CAMKK2 probe and negative control.xlsx, sheet "SGC-CAMKK2-1N" | column: Percent Control

[20] = target: T19, GRK7 (Homo sapiens, UniProt Q8WTQ7); test: KINOMEscan at 1 μM, GRK7; assay type: binding; conditions: 1000 nM, read-out: Percent Control
T19 construct: purchased Eurofins DiscoverX KINOMEscan
Text: as §2

[21] = target: T20, EPHB3 (Homo sapiens, UniProt P54753); test: KINOMEscan at 1 μM, EPHB3; assay type: binding; conditions: 1000 nM, read-out: Percent Control
T20 construct: purchased Eurofins DiscoverX KINOMEscan
Text: as §2

[22] = target: T21, CAMK1 (Homo sapiens, UniProt Q14012); test: KINOMEscan at 1 μM, CAMK1; assay type: binding; conditions: 1000 nM, read-out: Percent Control
T21 construct: purchased Eurofins DiscoverX KINOMEscan
Text: as §2

[23] = target: T22, DYRK1A (Homo sapiens, UniProt Q13627); test: KINOMEscan at 1 μM, DYRK1A; assay type: binding; conditions: 1000 nM, read-out: Percent Control
T22 construct: purchased Eurofins DiscoverX KINOMEscan
Text: as §2

[24] = target: T23, CSNK1G3 (Homo sapiens, UniProt Q9Y6M4); test: KINOMEscan at 1 μM, CSNK1G3; assay type: binding; conditions: 1000 nM, read-out: Percent Control
T23 construct: purchased Eurofins DiscoverX KINOMEscan
Text: as §2

[25] = target: T24, FGFR3 (Homo sapiens, UniProt P22607); test: KINOMEscan at 1 μM, FGFR3; assay type: binding; conditions: 1000 nM, read-out: Percent Control
T24 construct: purchased Eurofins DiscoverX KINOMEscan
Text: as §2

[26] = target: T25, CAMK2D (Homo sapiens, UniProt Q13557); test: KINOMEscan at 1 μM, CAMK2D; assay type: binding; conditions: 1000 nM, read-out: Percent Control
T25 construct: purchased Eurofins DiscoverX KINOMEscan
Text: as §2

[27] = target: T26, JAK2(JH1domain-catalytic) (Homo sapiens, UniProt O60674); test: KINOMEscan at 1 μM, JAK2(JH1domain-catalytic); assay type: binding; conditions: 1000 nM, read-out: Percent Control
T26 construct: JAK2(JH1domain-catalytic); purchased Eurofins DiscoverX KINOMEscan
Text: as §2

[28] = target: T27, TYK2(JH2domain-pseudokinase) (Homo sapiens, UniProt P29597); test: KINOMEscan at 1 μM, TYK2(JH2domain-pseudokinase); assay type: binding; conditions: 1000 nM, read-out: Percent Control
T27 construct: TYK2(JH2domain-pseudokinase); purchased Eurofins DiscoverX KINOMEscan
Text: as §2

[29] = target: T28, FES (Homo sapiens, UniProt P07332); test: KINOMEscan at 1 μM, FES; assay type: binding; conditions: 1000 nM, read-out: Percent Control
T28 construct: purchased Eurofins DiscoverX KINOMEscan
Text: as §2

[30] = target: T29, BMPR1A (Homo sapiens, UniProt P36894); test: KINOMEscan at 1 μM, BMPR1A; assay type: binding; conditions: 1000 nM, read-out: Percent Control
T29 construct: purchased Eurofins DiscoverX KINOMEscan
Text: as §2

[31] = target: T30, BRSK2 (Homo sapiens, UniProt Q8IWQ3); test: KINOMEscan at 1 μM, BRSK2; assay type: binding; conditions: 1000 nM, read-out: Percent Control
T30 construct: purchased Eurofins DiscoverX KINOMEscan
Text: as §2

[32] = target: T31, CHEK2 (Homo sapiens, UniProt O96017); test: KINOMEscan at 1 μM, CHEK2; assay type: binding; conditions: 1000 nM, read-out: Percent Control
T31 construct: purchased Eurofins DiscoverX KINOMEscan
Text: as §2

[33] = target: T32, PKAC-alpha (Homo sapiens, UniProt P17612); test: KINOMEscan binding assay at 1 μM, PKAC-alpha; conditions: Compound Concentration 1000 nM; read-out: Percent Control
T32 construct: purchased Eurofins DiscoverX KINOMEscan
Text: as §2

T2 sequence (Q99759 whole entry): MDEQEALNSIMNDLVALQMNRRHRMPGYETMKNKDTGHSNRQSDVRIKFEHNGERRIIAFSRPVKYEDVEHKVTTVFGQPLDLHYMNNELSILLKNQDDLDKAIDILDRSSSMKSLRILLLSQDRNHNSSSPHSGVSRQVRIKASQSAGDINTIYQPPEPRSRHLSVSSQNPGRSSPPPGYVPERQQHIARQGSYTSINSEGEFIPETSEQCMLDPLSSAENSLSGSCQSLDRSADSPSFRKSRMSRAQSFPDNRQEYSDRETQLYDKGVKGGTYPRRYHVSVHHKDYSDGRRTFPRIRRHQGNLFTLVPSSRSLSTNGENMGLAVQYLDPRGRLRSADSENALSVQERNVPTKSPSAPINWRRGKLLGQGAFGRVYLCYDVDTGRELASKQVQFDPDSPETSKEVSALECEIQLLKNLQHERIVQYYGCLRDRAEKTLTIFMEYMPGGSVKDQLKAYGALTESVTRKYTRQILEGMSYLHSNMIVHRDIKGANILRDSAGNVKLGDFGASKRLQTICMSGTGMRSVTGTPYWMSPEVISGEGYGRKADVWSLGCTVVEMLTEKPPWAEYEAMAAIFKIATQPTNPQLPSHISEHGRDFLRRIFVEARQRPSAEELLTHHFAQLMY
T10 sequence (O14733 whole entry): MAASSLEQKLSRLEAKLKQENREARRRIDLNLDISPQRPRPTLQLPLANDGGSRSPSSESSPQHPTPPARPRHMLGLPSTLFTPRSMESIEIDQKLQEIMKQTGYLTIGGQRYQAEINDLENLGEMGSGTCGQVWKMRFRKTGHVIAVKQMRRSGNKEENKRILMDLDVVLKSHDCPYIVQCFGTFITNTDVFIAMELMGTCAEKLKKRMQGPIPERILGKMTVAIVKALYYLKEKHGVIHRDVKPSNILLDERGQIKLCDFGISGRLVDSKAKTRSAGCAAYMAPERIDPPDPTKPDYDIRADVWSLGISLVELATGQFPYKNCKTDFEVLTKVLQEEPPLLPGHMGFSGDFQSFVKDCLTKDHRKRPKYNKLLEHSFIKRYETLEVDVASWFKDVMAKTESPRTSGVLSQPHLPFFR
T18 sequence (Q9NYL2 whole entry): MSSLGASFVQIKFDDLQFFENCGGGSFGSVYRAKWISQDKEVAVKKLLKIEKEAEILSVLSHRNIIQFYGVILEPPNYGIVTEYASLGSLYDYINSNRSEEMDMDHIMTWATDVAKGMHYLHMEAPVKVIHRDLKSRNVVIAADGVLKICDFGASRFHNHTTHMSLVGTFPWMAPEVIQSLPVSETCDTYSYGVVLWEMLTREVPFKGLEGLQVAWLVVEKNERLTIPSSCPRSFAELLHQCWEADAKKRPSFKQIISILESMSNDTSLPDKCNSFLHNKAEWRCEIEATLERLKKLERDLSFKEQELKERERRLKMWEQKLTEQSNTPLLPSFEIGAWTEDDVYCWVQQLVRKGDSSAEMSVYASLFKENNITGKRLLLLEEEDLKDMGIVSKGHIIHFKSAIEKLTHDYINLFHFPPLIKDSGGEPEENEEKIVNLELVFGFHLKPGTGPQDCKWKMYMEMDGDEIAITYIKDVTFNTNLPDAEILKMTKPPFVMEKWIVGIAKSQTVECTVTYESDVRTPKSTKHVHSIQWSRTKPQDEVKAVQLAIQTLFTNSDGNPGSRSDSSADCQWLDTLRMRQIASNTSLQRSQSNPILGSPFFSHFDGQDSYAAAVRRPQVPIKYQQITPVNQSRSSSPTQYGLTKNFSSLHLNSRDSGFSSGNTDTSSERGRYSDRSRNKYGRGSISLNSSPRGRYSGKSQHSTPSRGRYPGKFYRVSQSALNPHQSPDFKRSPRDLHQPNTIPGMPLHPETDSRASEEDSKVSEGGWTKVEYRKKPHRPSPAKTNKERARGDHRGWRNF
T21 sequence (Q14012 whole entry): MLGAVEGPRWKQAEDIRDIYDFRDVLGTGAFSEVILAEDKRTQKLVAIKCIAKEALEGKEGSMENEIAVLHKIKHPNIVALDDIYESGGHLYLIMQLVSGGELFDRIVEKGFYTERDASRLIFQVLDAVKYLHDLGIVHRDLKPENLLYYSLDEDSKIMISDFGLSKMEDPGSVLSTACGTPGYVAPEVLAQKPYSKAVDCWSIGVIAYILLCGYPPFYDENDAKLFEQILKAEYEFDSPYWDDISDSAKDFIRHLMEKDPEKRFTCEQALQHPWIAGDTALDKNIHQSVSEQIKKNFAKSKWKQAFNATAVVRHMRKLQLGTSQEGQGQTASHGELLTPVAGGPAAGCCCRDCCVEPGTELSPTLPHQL
T11 sequence (Q15208 whole entry): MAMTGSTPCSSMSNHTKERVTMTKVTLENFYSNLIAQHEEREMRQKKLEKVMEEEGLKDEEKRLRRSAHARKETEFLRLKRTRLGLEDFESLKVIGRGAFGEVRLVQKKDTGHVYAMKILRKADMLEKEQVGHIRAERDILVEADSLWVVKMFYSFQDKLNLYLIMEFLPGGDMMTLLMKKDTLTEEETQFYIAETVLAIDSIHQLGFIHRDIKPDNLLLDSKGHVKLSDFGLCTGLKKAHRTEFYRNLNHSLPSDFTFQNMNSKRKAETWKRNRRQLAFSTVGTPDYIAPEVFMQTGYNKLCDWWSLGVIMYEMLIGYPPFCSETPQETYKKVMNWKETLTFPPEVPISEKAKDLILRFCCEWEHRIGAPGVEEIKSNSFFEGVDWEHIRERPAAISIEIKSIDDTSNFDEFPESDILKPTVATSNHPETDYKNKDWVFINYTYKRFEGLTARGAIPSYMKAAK
T30 sequence (Q8IWQ3 whole entry): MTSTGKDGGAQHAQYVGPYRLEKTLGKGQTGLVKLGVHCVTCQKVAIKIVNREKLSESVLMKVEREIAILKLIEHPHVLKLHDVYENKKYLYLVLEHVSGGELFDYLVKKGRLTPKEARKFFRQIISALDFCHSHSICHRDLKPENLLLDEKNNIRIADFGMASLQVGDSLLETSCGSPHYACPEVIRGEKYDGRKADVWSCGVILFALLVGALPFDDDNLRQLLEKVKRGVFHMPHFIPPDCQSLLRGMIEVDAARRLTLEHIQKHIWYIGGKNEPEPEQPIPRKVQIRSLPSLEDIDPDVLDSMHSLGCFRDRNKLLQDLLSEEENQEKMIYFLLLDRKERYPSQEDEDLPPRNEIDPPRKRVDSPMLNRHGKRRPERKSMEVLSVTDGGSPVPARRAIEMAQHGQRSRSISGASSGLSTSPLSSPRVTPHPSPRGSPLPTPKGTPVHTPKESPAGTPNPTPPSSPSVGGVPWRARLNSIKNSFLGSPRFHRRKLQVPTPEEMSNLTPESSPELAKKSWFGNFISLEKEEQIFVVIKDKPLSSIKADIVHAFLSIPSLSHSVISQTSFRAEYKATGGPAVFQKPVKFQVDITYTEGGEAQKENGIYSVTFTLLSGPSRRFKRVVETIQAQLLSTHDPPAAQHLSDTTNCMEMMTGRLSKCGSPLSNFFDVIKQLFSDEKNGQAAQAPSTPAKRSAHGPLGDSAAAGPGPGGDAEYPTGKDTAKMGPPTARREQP
T26 sequence (O60674 840-1132 limits assumed): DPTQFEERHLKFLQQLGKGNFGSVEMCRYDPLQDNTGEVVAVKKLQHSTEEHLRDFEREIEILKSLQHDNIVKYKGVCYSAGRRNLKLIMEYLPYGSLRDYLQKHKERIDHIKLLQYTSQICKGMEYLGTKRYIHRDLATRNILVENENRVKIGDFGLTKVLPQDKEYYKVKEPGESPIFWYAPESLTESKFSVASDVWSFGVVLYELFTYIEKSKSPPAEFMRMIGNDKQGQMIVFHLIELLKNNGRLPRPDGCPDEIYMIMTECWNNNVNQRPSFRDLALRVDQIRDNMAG
T9 sequence (O43283 whole entry): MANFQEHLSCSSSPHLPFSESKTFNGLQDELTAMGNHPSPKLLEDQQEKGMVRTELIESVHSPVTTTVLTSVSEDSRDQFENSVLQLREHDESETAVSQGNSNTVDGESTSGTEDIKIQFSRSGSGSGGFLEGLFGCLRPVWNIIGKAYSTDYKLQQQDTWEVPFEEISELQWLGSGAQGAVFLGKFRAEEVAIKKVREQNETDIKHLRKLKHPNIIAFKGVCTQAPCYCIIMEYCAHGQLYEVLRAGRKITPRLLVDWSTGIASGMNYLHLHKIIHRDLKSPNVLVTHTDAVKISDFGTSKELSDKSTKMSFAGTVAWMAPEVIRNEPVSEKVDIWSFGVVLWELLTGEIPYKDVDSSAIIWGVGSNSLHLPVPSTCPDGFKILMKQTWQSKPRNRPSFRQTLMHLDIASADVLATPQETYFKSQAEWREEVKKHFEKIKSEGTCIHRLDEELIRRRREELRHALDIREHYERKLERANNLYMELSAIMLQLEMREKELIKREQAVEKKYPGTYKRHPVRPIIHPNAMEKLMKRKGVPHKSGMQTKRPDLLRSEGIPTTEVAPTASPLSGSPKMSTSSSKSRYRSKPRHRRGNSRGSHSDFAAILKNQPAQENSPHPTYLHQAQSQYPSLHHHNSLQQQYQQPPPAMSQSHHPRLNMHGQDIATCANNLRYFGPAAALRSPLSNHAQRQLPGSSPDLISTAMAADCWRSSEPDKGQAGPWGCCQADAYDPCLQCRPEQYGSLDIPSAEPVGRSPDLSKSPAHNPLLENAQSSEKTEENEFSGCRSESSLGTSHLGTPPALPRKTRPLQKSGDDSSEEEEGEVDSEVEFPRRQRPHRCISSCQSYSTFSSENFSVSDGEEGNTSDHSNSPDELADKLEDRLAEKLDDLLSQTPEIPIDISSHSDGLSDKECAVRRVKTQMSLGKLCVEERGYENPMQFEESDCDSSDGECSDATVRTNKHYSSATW
T27 sequence (P29597 556-888 limits assumed): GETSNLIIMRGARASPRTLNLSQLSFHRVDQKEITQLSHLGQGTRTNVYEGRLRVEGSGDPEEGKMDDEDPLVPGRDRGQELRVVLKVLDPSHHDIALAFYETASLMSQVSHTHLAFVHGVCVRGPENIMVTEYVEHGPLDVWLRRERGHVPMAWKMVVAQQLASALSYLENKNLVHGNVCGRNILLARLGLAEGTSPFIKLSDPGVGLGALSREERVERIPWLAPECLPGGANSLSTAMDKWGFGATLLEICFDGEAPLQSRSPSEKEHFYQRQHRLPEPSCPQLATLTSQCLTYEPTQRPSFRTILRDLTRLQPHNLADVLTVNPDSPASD

Structure (SMILES): Cc1cccc(-c2cnc3occ(-c4ccc(C(=O)O)c(C5CCCC5)c4)c3c2)c1 [SGC-CAMKK2-1 (YL-36)]
- remaining binding at 1 µM [1]: 69%
- remaining binding at 1 µM [2]: 88%
- remaining binding at 1 µM [3]: 91%
- remaining binding at 1 µM [4]: 97%
- remaining binding at 1 µM [5]: 100%
- remaining binding at 1 µM [6]: 100%
- remaining binding at 1 µM [7]: 100%
- remaining binding at 1 µM [8]: 100%
- remaining binding at 1 µM [9]: 100%
- remaining binding at 1 µM [10]: 100%
- remaining binding at 1 µM [11]: 100%
- remaining binding at 1 µM [12]: 100%
- remaining binding at 1 µM [13]: 100%
- remaining binding at 1 µM [14]: 100%
- remaining binding at 1 µM [15]: 100%
- remaining binding at 1 µM [16]: 100%
- remaining binding at 1 µM [17]: 100%
- remaining binding at 1 µM [18]: 100%

Structure (SMILES): O=C(O)c1ccc(-c2coc3ncc(-c4ccccc4)cc23)cc1Cl [SGC-CAMKK2-1N (UNC-YL-83)]
- remaining binding at 1 µM [19]: 47%
- remaining binding at 1 µM [20]: 50%
- remaining binding at 1 µM [21]: 53%
- remaining binding at 1 µM [22]: 62%
- remaining binding at 1 µM [23]: 71%
- remaining binding at 1 µM [24]: 76%
- remaining binding at 1 µM [25]: 76%
- remaining binding at 1 µM [26]: 77%
- remaining binding at 1 µM [27]: 80%
- remaining binding at 1 µM [28]: 83%
- remaining binding at 1 µM [29]: 88%
- remaining binding at 1 µM [30]: 93%
- remaining binding at 1 µM [31]: 100%
- remaining binding at 1 µM [32]: 100%
- remaining binding at 1 µM [33]: 100%
